Structures are written as SMILES. Bounds are passed on as bounds.

The experiment addresses T1, Menin MLL 4-43 (Homo sapiens, UniProt O00255).
T1 sequence (O00255 1-610): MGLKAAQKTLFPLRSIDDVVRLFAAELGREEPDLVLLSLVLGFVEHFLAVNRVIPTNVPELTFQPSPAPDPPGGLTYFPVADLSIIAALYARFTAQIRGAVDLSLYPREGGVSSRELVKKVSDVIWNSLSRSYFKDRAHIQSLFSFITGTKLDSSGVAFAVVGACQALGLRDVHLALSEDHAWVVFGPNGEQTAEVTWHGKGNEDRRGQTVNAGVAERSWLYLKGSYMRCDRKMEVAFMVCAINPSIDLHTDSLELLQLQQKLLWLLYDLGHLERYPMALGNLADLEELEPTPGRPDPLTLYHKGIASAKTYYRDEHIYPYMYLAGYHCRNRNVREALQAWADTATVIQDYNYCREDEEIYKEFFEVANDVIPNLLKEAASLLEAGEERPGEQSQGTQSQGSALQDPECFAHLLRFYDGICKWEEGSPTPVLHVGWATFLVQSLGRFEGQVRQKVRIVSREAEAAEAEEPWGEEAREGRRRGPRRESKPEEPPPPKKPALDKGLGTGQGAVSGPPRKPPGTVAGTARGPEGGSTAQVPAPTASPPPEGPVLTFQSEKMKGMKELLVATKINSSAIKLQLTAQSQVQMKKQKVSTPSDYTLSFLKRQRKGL
In words: Fluorescence polarization (FP) competition assay of the menin-MLL interaction. In kind it is binding. As to conditions: fluorescence polarization competition with fluorescein-labeled MLL peptide. The text has this: This example illustrates an assay effective in monitoring the binding of MLL to menin. […] A fluorescein-labeled peptide containing the high affinity menin binding motif found in MLL was produced according to Yokoyama et al. (Cell, 2005, 123(2): 207-218), herein incorporated by reference in its entirety. Binding of the labeled peptide (1.7 kDa) to the much larger menin (˜67 kDa) is accompanied by a significant change in the rotational correlation time of the fluorophore, resulting in a substantial increase in the fluorescence polarization and fluorescence anisotropy (excitation at 500 nm, emission at 525 nm).
A general note: Fluorescence polarisation rises when a labelled molecule tumbles more slowly, as on binding a larger partner.
Turning to `CNS(=O)(=O)N1CCN([C@@H](C)Cn2c(C#N)cc3c(C)c(CN4CCC5(CCN(c6nc(C)nc7sc(CC(F)(F)F)cc67)C5)C4)ccc32)CC1` (stereo partly drawn) [Compound 1, 4-((2S)-1-(2-cyano-4-methyl-5-((7-(2-methyl-6-(2,2,2-trifluoroethyl)thieno[2,3-d]pyrimidin-4-yl)-2,7-diazaspiro[4.4]nonan-2-yl)methyl)-1H-indol-1-yl)propan-2-yl)-N-methylpiperazine-1-sulfonamide], the IC50 is 50 to 250 nM.
On to `CCC(=O)NC12CC(Cn3c(C#N)cc4c(C)c(CN5CCC6(CCN(c7nc(C)nc8sc(CC(F)(F)F)cc78)C6)C5)ccc43)(C1)C2` (stereo not shown) [Compound 3, N-(3-((2-cyano-4-methyl-5-((7-(2-methyl-6-(2,2,2-trifluoroethyl)thieno[2,3-d]pyrimidin-4-yl)-2,7-diazaspiro[4.4]nonan-2-yl)methyl)-1H-indol-1-yl)methyl)bicyclo[1.1.1]pentan-1-yl)propionamide], for which the concentration for half-maximal inhibition (IC50) lay in the range of 250 to 1000 nM.
With `CNc1nc(N2CCC3(CCN(Cc4ccc5c(cc(C#N)n5C[C@H](C)N5CCN(S(=O)(=O)NC)CC5)c4C)C3)C2)c2cc(CC(F)(F)F)sc2n1` (stereo partly shown) [Compound 5] the figure was less than 50 nM.
As for `Cc1nc(N2CCC3(CCN(Cc4ccc5c(cc(C#N)n5C[C@H](C)N5CCN(S(C)(=O)=O)CC5)c4C)C3)C2)c2cc(CC(F)(F)F)sc2n1` (stereo partly shown) [Compound 8], the figure is 50 to 250 nM; as for `CNc1nc(N2CCC3(CCN(Cc4ccc5c(cc(C#N)n5C[C@H](C)N5CCN(S(C)(=O)=O)CC5)c4C)C3)C2)c2cc(CC(F)(F)F)sc2n1` (stereo partly shown) [Compound 9], 50 to 250 nM; as for `CCC(=O)NC12CC(Cn3c(C#N)cc4c(C)c(CN5CCC6(CCN(c7nc(NC)nc8sc(CC(F)(F)F)cc78)C6)C5)ccc43)(C1)C2` (stereo not shown) [Compound 11], 50 to 250 nM.
With `CNc1nc(N2CCC3(CCN(C[C@H]4CC[C@H](NS(C)(=O)=O)CC4)C3)C2)c2cc(CC(F)(F)F)sc2n1` (stereo partly shown) [Compound 14] the figure was less than 50 nM.
For the molecule `Cc1nc(N2CCC3(CCN(Cc4ccc5c(cc(C#N)n5C[C@H](C)N5CCN(S(C)(=O)=O)CC5)c4C)C3)C2)c2cc(CC(F)(F)F)sc2n1` (stereo partly shown) [Compound 17], the IC50 is less than 50 nM.
`Cc1nc(N2CCC3(CCN(Cc4ccc5c(cc(C#N)n5C[C@@H]5CNC(=O)CO5)c4C)C3)C2)c2cc(CC(F)(F)F)sc2n1` (stereo partly shown) [Compound 21] displayed an IC50 of less than 50 nM.
With `CNc1nc(N2CCC3(CCN(Cc4ccc5c(cc(C#N)n5C[C@@H]5CNC(=O)CO5)c4C)C3)C2)c2cc(CC(F)(F)F)sc2n1` (stereo partly shown) [Compound 22] the figure was less than 50 nM; with `Cc1nc(N2CCC3(CCN(Cc4ccc(NS(C)(=O)=O)cc4)C3)C2)c2cc(CC(F)(F)F)sc2n1` (stereo not shown) [Compound 25], 250 to 1000 nM; with `CNc1nc(N2CCC3(CCN(Cc4ccc(NS(C)(=O)=O)cc4)C3)C2)c2cc(CC(F)(F)F)sc2n1` (stereo not shown) [Compound 26], 50 to 250 nM.
As for `Cc1nc(N2CCC3(CCN(Cc4ccc5c(c4)[nH]c(=O)n5CCO)C3)C2)c2cc(CC(F)(F)F)sc2n1` (stereo not shown) [Compound 29], the figure is 250 to 1000 nM.
As for `CNc1nc(N2CCC3(CCN(Cc4ccc5c(c4)[nH]c(=O)n5CCO)C3)C2)c2cc(CC(F)(F)F)sc2n1` (stereo not shown) [Compound 30], the figure is less than 50 nM; as for `Cc1nc(N2CCC3(CCN(Cc4ccc5[nH]c(C#N)cc5c4C)C3)C2)c2cc(CC(F)(F)F)sc2n1` (stereo not shown) [Compound 41], more than 1000 nM; as for `CNc1nc(N2CCC3(CCN(Cc4ccc5[nH]c(C#N)cc5c4C)C3)C2)c2cc(CC(F)(F)F)sc2n1` (stereo not shown) [Compound 42], 250 to 1000 nM.
Consider `Cc1c(CN2CCC3(CCN(c4ncnc5sc(CC(F)(F)F)cc45)C3)C2)ccc2c1cc(C#N)n2C[C@H](C)N1CCN(S(C)(=O)=O)CC1` (stereo partly shown) [Compound 43], for which the IC50 was less than 50 nM.
With `Cc1c(CN2CCC3(CCN(c4ncnc5sc(CC(F)(F)F)cc45)C3)C2)ccc2c1cc(C#N)n2C[C@@H]1CNC(=O)OC1` (stereo partly shown) [Compound 44] the figure was less than 50 nM.
As for `CNS(=O)(=O)N1CCN([C@@H](C)Cn2c(C#N)cc3c(C)c(CN4CCC5(CCN(c6ncnc7sc(CC(F)(F)F)cc67)C5)C4)ccc32)CC1` (stereo partly shown) [Compound 45], the figure is less than 50 nM; as for `CNc1nc(N2CCC3(CCN(Cc4ccc5c(cc(C#N)n5CCN5CCN(S(=O)(=O)NC)CC5)c4C)C3)C2)c2cc(CC(F)(F)F)sc2n1` (stereo not shown) [Compound 46], 50 to 250 nM.
With `CNc1nc(N2CCC3(CCN(Cc4ccc5c(cc(C#N)n5C[C@H](C)N5CCC(S(=O)(=O)NC)CC5)c4C)C3)C2)c2cc(CC(F)(F)F)sc2n1` (stereo partly shown) [Compound 68] the figure was less than 50 nM; with `CNS(=O)(=O)C1CCN([C@@H](C)Cn2c(C#N)cc3c(C)c(CN4CCC5(CCN(c6nc(C)nc7sc(CC(F)(F)F)cc67)C5)C4)ccc32)CC1` (stereo partly shown) [Compound 69], less than 50 nM; with `CNS(=O)(=O)C1CCN([C@@H](C)Cn2c(C#N)cc3c(C)c(CN4CCC5(CCN(c6ncnc7sc(CC(F)(F)F)cc67)C5)C4)ccc32)CC1` (stereo partly shown) [Compound 70], less than 50 nM.
The molecule `CNc1nc(N2CCC3(CCN(Cc4ccc5c(cc(C#N)n5C[C@H](C)N5CCC(S(C)(=O)=O)CC5)c4C)C3)C2)c2cc(CC(F)(F)F)sc2n1` (stereo partly shown) [Compound 75] came in with an IC50 of less than 50 nM.
Turning to `CNc1nc(N2CCC3(CCN(Cc4ccc5c(cc(C#N)n5CCN5CCC(S(C)(=O)=O)CC5)c4C)C3)C2)c2cc(CC(F)(F)F)sc2n1` (stereo not shown) [Compound 77], the half-maximal inhibitory concentration (IC50) was less than 50 nM.
Consider `CNc1nc(N2CCC3(CCN(Cc4ccc(NS(=O)(=O)NC)cc4)C3)C2)c2cc(CC(F)(F)F)sc2n1` (stereo not shown) [Compound 96], for which the IC50 is more than 1000 nM.
`Cc1c(CN2CCC3(CCN(c4nc(N)nc5sc(CC(F)(F)F)cc45)C3)C2)ccc2[nH]c(C#N)cc12` (stereo not shown) [Compound 125] had an IC50 of more than 1000 nM.
With `CCS(=O)(=O)Nc1ccc(CN2CCC3(CCN(c4nc(NC)nc5sc(CC(F)(F)F)cc45)C3)C2)cc1` (stereo not shown) [Compound 126] the figure was 50 to 250 nM; with `CNc1nc(N2CC3CN(Cc4ccc5[nH]c(C#N)cc5c4C)CC3C2)c2cc(CC(F)(F)F)sc2n1` (stereo not shown) [Compound 127], 50 to 250 nM; with `CNc1nc(N2CC3CN(CCc4ccccc4)CC3C2)c2cc(CC(F)(F)F)sc2n1` (stereo not shown) [Compound 128], more than 1000 nM.
With `CNc1nc(N2CC3CCN(Cc4ccc5[nH]c(C#N)cc5c4C)C3C2)c2cc(CC(F)(F)F)sc2n1` (stereo not shown) [Compound 129] the figure was more than 1000 nM; with `CNc1nc(N2CC3CN(CCc4ccc5[nH]ccc5c4)CC3C2)c2cc(CC(F)(F)F)sc2n1` (stereo not shown) [Compound 139], 250 to 1000 nM.
As for `CNc1nc(N2CC3CCN(Cc4ccc5[nH]c(=O)[nH]c5c4)C3C2)c2cc(CC(F)(F)F)sc2n1` (stereo not shown) [Compound 140], the figure is more than 1000 nM; as for `CNc1nc(N2CC3CCN(Cc4ccccc4)C3C2)c2cc(CC(F)(F)F)sc2n1` (stereo not shown) [Compound 141], more than 1000 nM.
`CNc1nc(N2CC3CCN(CCc4ccccc4)C3C2)c2cc(CC(F)(F)F)sc2n1` (stereo not shown) [Compound 142] gave a concentration for half-maximal inhibition (IC50) of more than 1000 nM.
With `CNc1nc(N2CCC3CCN(Cc4ccc5[nH]c(C#N)cc5c4C)C3C2)c2cc(CC(F)(F)F)sc2n1` (stereo not shown) [Compound 143] the figure was more than 1000 nM.
With `CNc1nc(N2CCC3CCN(Cc4ccc5[nH]c(=O)[nH]c5c4)C3C2)c2cc(CC(F)(F)F)sc2n1` (stereo not shown) [Compound 144] the figure was more than 1000 nM.
With `CNc1nc(N2CCC3CCN(Cc4ccccc4)C3C2)c2cc(CC(F)(F)F)sc2n1` (stereo not shown) [Compound 145] the figure was more than 1000 nM; with `CNc1nc(N2CC3CN(Cc4ccc(C#N)cc4)CC3C2)c2cc(CC(F)(F)F)sc2n1` (stereo not shown) [Compound 146], more than 1000 nM.
`CNc1nc(N2CC3CN(Cc4ccc(NS(C)(=O)=O)cc4)CC3C2)c2cc(CC(F)(F)F)sc2n1` (stereo not shown) [Compound 147] returned an IC50 of more than 1000 nM.
`CNc1nc(N2CC3CN(Cc4ccc(NC(C)=O)cc4)CC3C2)c2cc(CC(F)(F)F)sc2n1` (stereo not shown) [Compound 148] showed an IC50 of more than 1000 nM.
As for `Cc1nc(N2CC3CN(Cc4ccc5[nH]c(C#N)cc5c4C)CC3C2)c2cc(CC(F)(F)F)sc2n1` (stereo not shown) [Compound 149], the figure is more than 1000 nM; as for `Cc1c(CN2CC3CN(c4ncnc5sc(CC(F)(F)F)cc45)CC3C2)ccc2[nH]c(C#N)cc12` (stereo not shown) [Compound 150], more than 1000 nM.
With `CNc1nc(N2CC3CN(Cc4ccc5c(cc(C#N)n5CCN5CCN(S(C)(=O)=O)CC5)c4C)CC3C2)c2cc(CC(F)(F)F)sc2n1` (stereo not shown) [Compound 151] the figure was more than 1000 nM; with `CNc1nc(N2CCC3CN(Cc4ccccc4)CC3C2)c2cc(CC(F)(F)F)sc2n1` (stereo not shown) [Compound 152], 250 to 1000 nM.
With `CNc1nc(N2CCC3CN(Cc4ccc5[nH]c(C#N)cc5c4C)CC3C2)c2cc(CC(F)(F)F)sc2n1` (stereo not shown) [Compound 153] the figure was more than 1000 nM; with `CNc1nc(N2CCC3CN(CCc4ccccc4)CC3C2)c2cc(CC(F)(F)F)sc2n1` (stereo not shown) [Compound 154], more than 1000 nM.
The molecule `CNc1nc(N2CCC3CN(CCc4ccc5[nH]ccc5c4)CC3C2)c2cc(CC(F)(F)F)sc2n1` (stereo not shown) [Compound 155] gave an IC50 of 250 to 1000 nM.
For the molecule `CNc1nc(N2CC3CCN(Cc4ccccc4)CC3C2)c2cc(CC(F)(F)F)sc2n1` (stereo not shown) [Compound 156], the IC50 is more than 1000 nM.

The IC50 is the concentration that gives 50% inhibition. The low end stands for inhibition by little substance, the high end for a need for much substance.

Source of the values: US11649251B2, “Substituted inhibitors of menin-MLL and methods of use” (Kura Oncology, Inc., priority 2017, dated 2023).
